This test relates to P388 leukemia ip, CD2F1 mice, survival T/C. Put plainly: NCI In Vivo Anticancer Drug Screen. Data for tumor model P388 Leukemia (intraperitoneal) in CD2F1 (CDF1) mice. Particulars: endpoint: median survival time, higher = longer survival. A digest of the protocol: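 Mice carrying the transplanted tumor received test compound or vehicle. Survival was recorded in each group, and the value is the treated-group measurement divided by that of the vehicle-treated control group.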

Setting [1] is: dose: 12.5 mg/kg/injection, schedule: Q01DX009 (ip), vehicle: saline.
Setting [2] is: dose: 50.0 mg/kg/injection, schedule: Q01DX009 (ip), vehicle: Klucel (hydroxypropylcellulose) (HPC).
Setting [3] is: dose: 100.0 mg/kg/injection, schedule: Q01DX009 (ip), vehicle: Klucel (hydroxypropylcellulose) (HPC).
Setting [4] is: dose: 200.0 mg/kg/injection, schedule: Q01DX009 (ip), vehicle: Klucel (hydroxypropylcellulose) (HPC).
[5] abbreviates: dose: 50.0 mg/kg/injection, schedule: Q01DX009 (ip), vehicle: saline with Tween-80.
Setting [6] is: dose: 100.0 mg/kg/injection, schedule: Q01DX009 (ip), vehicle: saline with Tween-80.
[7] abbreviates: dose: 60.0 mg/kg/injection, schedule: Q01DX005 (ip), vehicle: saline with Tween-80.
Setting [8] is: dose: 100.0 mg/kg/injection, schedule: Q01DX009 (ip), vehicle: saline.
Where [9] appears, read: dose: 200.0 mg/kg/injection, schedule: Q01DX009 (ip), vehicle: saline.
The mark [10] stands for this setting: dose: 25.0 mg/kg/injection, schedule: Q01DX009 (ip), vehicle: saline.
[11] abbreviates: dose: 50.0 mg/kg/injection, schedule: Q01DX009 (ip), vehicle: saline.
[12] abbreviates: dose: 50.0 mg/kg/injection, schedule: Q01DX005 (ip), vehicle: Klucel (hydroxypropylcellulose) (HPC).
Setting [13] is: dose: 100.0 mg/kg/injection, schedule: Q01DX005 (ip), vehicle: Klucel (hydroxypropylcellulose) (HPC).
Where [14] appears, read: dose: 200.0 mg/kg/injection, schedule: Q01DX005 (ip), vehicle: Klucel (hydroxypropylcellulose) (HPC).

Where “and” joins values, the source holds several entries; their conditions need not be identical. Equal values may be shown once. Toxic doses and inconclusive results are not listed.

Results on 22 compounds are retold here after PubChem BioAssay AID330 (DTP/NCI, 2004).

In the case of `Cc1cc(N2C(=O)CCSC2=S)c([N+](=O)[O-])cc1C`, the T/C runs as follows: (dose: 50.0 mg/kg/injection, schedule: Q01DX009 (ip), vehicle: suspension in saline) 98 % of control; (dose: 100.0 mg/kg/injection, schedule: Q01DX009 (ip), vehicle: suspension in saline) 91 % of control; (dose: 200.0 mg/kg/injection, schedule: Q01DX009 (ip), vehicle: suspension in saline) 94 % of control.

Consider `CC(C)=CCC/C(C)=C/CC1=C(O)c2ccccc2C(=O)C1=O`, for which the T/C (dose: 1.56 mg/kg/injection, schedule: Q01DX009 (ip), vehicle: saline) was 98 % of control; the T/C (dose: 3.12 mg/kg/injection, schedule: Q01DX009 (ip), vehicle: saline) is 100 % of control; the T/C (dose: 6.25 mg/kg/injection, schedule: Q01DX009 (ip), vehicle: saline) is 100 % of control; the T/C under setting [1] is 104 % of control and 94 % of control.

Consider `c1cc2nncn2cn1`, for which the T/C reads like this: under setting [2], 93 % of control; under setting [3], 104 % of control; under setting [4], 99 % of control.

With `CCOC1CC2(O)c3c(cc4c(c3O)C(=O)c3c(O)ccc(O)c3C4=O)OC2O1` (stereo not drawn), the T/C was 103 % of control (dose: 100.0 mg/kg/injection, schedule: Q01DX001 (ip), vehicle: saline); 109 % of control (dose: 200.0 mg/kg/injection, schedule: Q01DX001 (ip), vehicle: saline); 116 % of control (dose: 400.0 mg/kg/injection, schedule: Q01DX001 (ip), vehicle: saline).

Turning to `CCCCCCCCOCC(=O)O`, the T/C was 107 % of control under setting [5]; 94 % of control under setting [6]; 96 % of control (dose: 200.0 mg/kg/injection, schedule: Q01DX009 (ip), vehicle: saline with Tween-80).

On to `COC12C=CC(CC1)C1C(=O)C=CC(=O)C12` (stereo not drawn), for which the T/C by setting is: under setting [7], 105 % of control; (dose: 120.0 mg/kg/injection, schedule: Q01DX005 (ip), vehicle: saline with Tween-80) 105 % of control; (dose: 240.0 mg/kg/injection, schedule: Q01DX005 (ip), vehicle: saline with Tween-80) 112 % of control.

Consider `CC1OC(OC23C(=O)CC(C)(O)CC2(O)C=CC2=C3C(=O)c3ccc(C4CC(OC5CCC(OC6CC(O)C(O)C(C)O6)C(C)O5)C(O)C(C)O4)c(O)c3C2=O)CCC1O` (stereo not drawn), for which the T/C is 104 % of control (dose: 1.0 mg/kg/injection, schedule: Q01DX005 (ip), vehicle: DMSO); 105 % of control (dose: 2.0 mg/kg/injection, schedule: Q01DX005 (ip), vehicle: DMSO); 99 % of control (dose: 4.0 mg/kg/injection, schedule: Q01DX005 (ip), vehicle: DMSO); 100 % of control (dose: 6.25 mg/kg/injection, schedule: Q04DX003 (ip), vehicle: Klucel (hydroxypropylcellulose) (HPC)); 91 % of control (dose: 12.5 mg/kg/injection, schedule: Q04DX003 (ip), vehicle: Klucel (hydroxypropylcellulose) (HPC)); 100 % of control (dose: 25.0 mg/kg/injection, schedule: Q04DX003 (ip), vehicle: Klucel (hydroxypropylcellulose) (HPC)).

In the case of `S=CN1CCCCC1`, the T/C was 98 % of control (dose: 15.0 mg/kg/injection, schedule: Q01DX005 (ip), vehicle: saline with Tween-80); 106 % of control (dose: 30.0 mg/kg/injection, schedule: Q01DX005 (ip), vehicle: saline with Tween-80); 106 % of control under setting [7].

On to `O=C(N/N=C/c1ccccc1O)c1cccc([N+](=O)[O-])c1`, for which the T/C was 99 % of control under setting [8]; 100 % of control under setting [9]; 91 % of control (dose: 400.0 mg/kg/injection, schedule: Q01DX009 (ip), vehicle: saline).

For `CN=C(NC(C)C)c1ccccc1`, the T/C under setting [1] is 91 % of control; the T/C under setting [10] is 88 % of control; the T/C under setting [11] is 104 % of control and 88 % of control.

In the case of `CCOC(=O)N/N=C/c1ccc2c(c1)c1ccccc1n2CC`, the T/C runs as follows: under setting [12], 90 % of control; under setting [13], 98 % of control; under setting [14], 90 % of control.

For the compound `O=C(O)CCC(=O)OCN1C(=O)C2C3C=CC(C2C1=O)C1C2C(=O)N(COC(=O)CCC(=O)O)C(=O)C2C31` (stereo not drawn), the T/C (dose: 25.0 mg/kg/injection, schedule: Q01DX009 (ip), vehicle: water) is 103 % of control and 107 % of control (2×); the T/C (dose: 50.0 mg/kg/injection, schedule: Q01DX009 (ip), vehicle: water) is 115 % of control and 116 % of control and 122 % of control; the T/C (dose: 100.0 mg/kg/injection, schedule: Q01DX009 (ip), vehicle: water) is 165 % of control and 178 % of control.

Turning to `CNC(=S)N/N=C\C(C)=N/Nc1ccc([N+](=O)[O-])cc1`, the T/C was 94 % of control under setting [11], 93 % of control under setting [8] and 87 % of control under setting [9].

For `CNc1nc2c(N)ncnc2n1C1OC(CO)C(O)C1O` (stereo not drawn), the T/C is 94 % of control (dose: 6.25 mg/kg/injection, schedule: Q01DX009 (ip), vehicle: suspension in saline) and 112 % of control (dose: 12.5 mg/kg/injection, schedule: Q01DX009 (ip), vehicle: suspension in saline).

On to `CC(C)(C)c1cc2c3c(c1)Oc1cc(C(C)(C)C)cc4c1C3(O)c1c(cc(C(C)(C)C)cc1O4)O2`, for which the T/C (dose: 1.56 mg/kg/injection, schedule: Q01DX005 (ip), vehicle: Klucel (hydroxypropylcellulose) (HPC)) was 107 % of control; the T/C (dose: 3.12 mg/kg/injection, schedule: Q01DX005 (ip), vehicle: Klucel (hydroxypropylcellulose) (HPC)) is 104 % of control and 108 % of control; the T/C (dose: 6.25 mg/kg/injection, schedule: Q01DX005 (ip), vehicle: Klucel (hydroxypropylcellulose) (HPC)) was 101 % of control and 110 % of control and 118 % of control; the T/C (dose: 12.5 mg/kg/injection, schedule: Q01DX005 (ip), vehicle: Klucel (hydroxypropylcellulose) (HPC)) was 107 % of control and 111 % of control and 120 % of control; the T/C (dose: 25.0 mg/kg/injection, schedule: Q01DX005 (ip), vehicle: Klucel (hydroxypropylcellulose) (HPC)) is 102 % of control.

Take `CP1(=O)CC23CCCCC2(C1)O3` (stereo not drawn): the T/C is 109 % of control under setting [2], 104 % of control under setting [3] and 109 % of control under setting [4].

For the compound `CCN(CC)CCCC(C)Nc1ncnc2cc(Cl)ccc12` (stereo not drawn), the T/C by setting is: (dose: 50.0 mg/kg/injection, schedule: Q01DX005 (ip), vehicle: saline with Tween-80) 97 % of control; (dose: 100.0 mg/kg/injection, schedule: Q01DX005 (ip), vehicle: saline with Tween-80) 94 % of control; (dose: 200.0 mg/kg/injection, schedule: Q01DX005 (ip), vehicle: saline with Tween-80) 94 % of control.

As for `Oc1[nH]c2ccccc2c1N=NC1=NCCN1`, the T/C runs as follows: (dose: 60.0 mg/kg/injection, schedule: Q01DX005 (ip), vehicle: saline) 101 % of control; (dose: 120.0 mg/kg/injection, schedule: Q01DX005 (ip), vehicle: saline) 104 % of control; (dose: 240.0 mg/kg/injection, schedule: Q01DX005 (ip), vehicle: saline) 87 % of control.

As for `CCN(CC)C(=Nc1ccc(NC(=O)c2ccc(C(=O)Nc3ccc(N=C(c4ccccc4)N(CC)CC)cc3)cc2)cc1)c1ccccc1`, the T/C is 96 % of control under setting [12], 97 % of control under setting [13] and 96 % of control under setting [14].

As for `CC1=NC2=NC(CCCC(=O)N3CCCCC3)=NC3=CC=CC(=N1)N32`, the T/C under setting [10] was 104 % of control, the T/C under setting [11] was 101 % of control and the T/C under setting [8] was 103 % of control.

On to `CCc1ccc(C(C)(C)C)cc1`, for which the T/C is, setting by setting: (dose: 37.5 mg/kg/injection, schedule: Q01DX009 (ip), vehicle: saline with Tween-80) 110 % of control; under setting [5], 104 % of control; (dose: 75.0 mg/kg/injection, schedule: Q01DX009 (ip), vehicle: saline with Tween-80) 111 % of control; under setting [6], 109 % of control; (dose: 132.0 mg/kg/injection, schedule: Q01DX009 (ip), vehicle: saline with Tween-80) 113 % of control; (dose: 150.0 mg/kg/injection, schedule: Q01DX009 (ip), vehicle: saline with Tween-80) 102 % of control.

As for `O=Nc1c(O)c(Cl)cc2ccccc12`, the T/C by setting is: (dose: 3.12 mg/kg/injection, schedule: Q01DX005 (ip), vehicle: saline with Tween-80) 101 % of control; (dose: 6.25 mg/kg/injection, schedule: Q01DX005 (ip), vehicle: saline with Tween-80) 103 % of control.
